Columns and labels:
Arabidopsis thaliana = experiment: Bioassay 2, salt stress, survival of Arabidopsis thaliana plants in 150 mM NaCl; assay type: in vivo; conditions: 168 h, 5 ppm compound for 1 day, then 150 mM NaCl for 7 days, green individuals alive, yellowed or bleached dead, read-out: Survival Rate (%)
Method: Arabidopsis thaliana seeds were sterilized with 70% ethanol and then sown in a petri dish containing HYPONeX (sterilized) diluted 4,000 times with water. The compound was diluted with sterile water so that the concentration of the compound dissolved in DMSO was 5 ppm. 65 μl of each drug solution was dispensed into a 96-well microplate, into which 5 Arabidopsis thaliana plants on their 8th day of sowing were placed and left to stand for 1 day. The next day, the plants were transferred to a well containing 65 μl of 150 mM NaCl and cultured for 7 days. The treatment was performed in two series, and in the investigation, a stereomicroscope was used to determine their survival, with the green individuals identified as alive and the yellowed or bleached individuals as dead.

corn = experiment: Bioassay 1, drought stress, corn test (foliage spray, degree of withering); assay type: in vivo; conditions: 200 ppm foliage spray; for Withering Index: 2 to 3 leaf stage, 2 days at 25° C., aerial parts cut out, four stages (0: healthy to 3: complete withering), average of test series
Method: (§1) A 5-membered heterocyclyl compound dissolved in DMF was diluted with water so that the concentration of the compound was 200 ppm, and a sufficient amount of the diluted solution was foliage-sprayed on corn and soybean at the 2 to 3 leaf stage.
(§2) Corn and soybean foliage-sprayed with a sufficient amount of a diluted solution prepared by removing the compound were used as the untreated plot.
(§3) The sprayed test plants were cultivated for 2 days under the conditions of a temperature of 25° C. and a day length of 14 hours.
(§4) The aerial parts were cut out and the corn or soybean of the untreated plot was left to stand until completely withered. The degree of withering was investigated from the perspective of four stages (0: healthy to 3: complete withering).
As for corn, it refers to a bent state.
(§5) Abscisic acid was used as a control. Abscisic acid (ABA), known as a plant hormone, is produced by the plant itself and is known as an important signal substance that closes the stomata during drought stress to suppress excessive transpiration of water from the leaves, and induces stress tolerance.
The index of ABA indicates the average of the results of a series of 10 tests. The index of the 5-membered heterocyclyl compounds (A) to (F) indicates the average of the results of a series of 2 tests.

soybean = experiment: Bioassay 1, drought stress, soybean test (foliage spray, degree of withering); assay type: in vivo; conditions: 200 ppm foliage spray; for Withering Index: 2 to 3 leaf stage, 2 days at 25° C., aerial parts cut out, four stages (0: healthy to 3: complete withering), average of test series
Method: as §1, §2, §3, §4
Here, with respect to soybean, complete withering refers to a state in which all the leaves of the soybean are withered and the upper part is curved.
as §5
The index of ABA indicates the average of the results of a series of 10 tests. The index of the 5-membered heterocyclyl compound (F) indicates the average of the results of a series of 2 tests.

CCON=C1CN(C(=O)C(C)c2ccc(-c3noc(C(F)(F)F)n3)cc2)C1 (centres unmarked) [G]
responders at 5 ppm (Arabidopsis thaliana): 80%

C=CCON=C1CN(C(=O)Cc2ccc(-c3noc(C(F)(F)F)n3)cc2)C1 [Compound 2]
responders at 5 ppm (Arabidopsis thaliana): 70%

FC(F)(F)c1nc(-c2ccc(COc3cc(-n4cncn4)ncn3)cc2)no1 [Compound 7]
responders at 5 ppm (Arabidopsis thaliana): 70%

FC(F)(F)c1nc(-c2ccc(COc3cc(Cl)ncn3)cc2)no1 [Compound 6]
Withering Index (corn): 1.0
melting point: 144 to 146 °C

O=c1cccnn1Cc1ccc(-c2noc(C(F)(F)F)n2)cc1 [C]
Withering Index (corn): 1.5

CC1=CC(=O)CC(C)(C)[C@@]1(O)/C=C/C(C)=C\C(=O)O [ABA, Abscisic acid, reference compound]
Withering Index (corn): 1.1
Withering Index (soybean): 0.5

O=C(c1ccc(-c2noc(C(F)(F)F)n2)cc1)N1CCCCC1 [D]
Withering Index (corn): 1.5
responders at 5 ppm (Arabidopsis thaliana): 80%

N#CCON=C1CN(C(=O)Cc2ccc(-c3noc(C(F)(F)F)n3)cc2)C1 [A]
Withering Index (corn): 1.5

CCON=C1CN(C(=O)C(OC)c2ccc(-c3noc(C(F)(F)F)n3)cc2F)C1 (centres unmarked) [Compound 1]
responders at 5 ppm (Arabidopsis thaliana): 80%

CON=C1CN(c2cc(=O)n(Cc3ccc(-c4noc(C(F)(F)F)n4)cc3)cn2)C1 [Compound 3]
responders at 5 ppm (Arabidopsis thaliana): 70%

O=C1CCCCN1Cc1ccc(-c2noc(C(F)(F)F)n2)cc1 [M]
responders at 5 ppm (Arabidopsis thaliana): 70%

CC1(NC(=O)c2ccc(-c3noc(C(F)(F)F)n3)cc2)CC1 [E]
Withering Index (corn): 1.5

CCOC(=O)c1ccnn1Cc1ccc(-c2noc(C(F)(F)F)n2)cc1 [L]
Withering Index (soybean): 1.5

COc1cncn(Cc2ccc(-c3noc(C(F)(F)F)n3)cc2)c1=O [Compound 10]
Withering Index (corn): 1.0
melting point: 119 to 120 °C

Cc1nc(C)n(Cc2ccc(-c3noc(C(F)(F)F)n3)cc2)c(=O)c1Cl [H]
Withering Index (corn): 1.5

CC(=NOC/C=C/Cl)c1ccc(C2=NOC(O)(C(F)(F)F)C2)cc1 (centres unmarked) [Compound 8]
Withering Index (corn): 1.5
melting point: 126 to 128 °C

O=C(NC12CC(C1)C2)c1ccc(-c2noc(C(F)(F)F)n2)cc1 [F]
Withering Index (corn): 0.5
reduction of drought stress compared with ABA (corn; result in words): showed an index higher than that of ABA
Withering Index (soybean): 1.5
reduction of drought stress compared with ABA (soybean; result in words): reduces the drought stress, although to a lesser extent than ABA

COCCn1cccc(OCc2ccc(-c3noc(C(F)(F)F)n3)cc2)c1=O [Compound 11]
Withering Index (corn): 1.0
melting point: 127 to 130 °C

CCON=C1CN(C(=O)C(OC)c2ccc(-c3noc(C(F)(F)F)n3)cc2)C1 (centres unmarked) [B]
Withering Index (corn): 1.5

O=c1c(Cl)c(Cl)cnn1Cc1ccc(-c2noc(C(F)(F)F)n2)cc1 [J]
Withering Index (corn): 1.0

CSc1nccc(OCc2ccc(-c3noc(C(F)(F)F)n3)cc2)n1 [Compound 5]
responders at 5 ppm (Arabidopsis thaliana): 80%

O=C(NC1CC1)c1ccn(Cc2ccc(-c3noc(C(F)(F)F)n3)cc2)n1 [K]
Withering Index (corn): 1.0

O=c1cc(OCc2ccc(-c3noc(C(F)(F)F)n3)cc2)ccn1CC1CC1 [Compound 4]
Withering Index (soybean): 1.5
melting point: 115 to 117 °C

CON=C(C)c1ccc(C2=NOC(OC)(C(F)(F)F)C2)cc1 (centres unmarked) [Compound 9]
Withering Index (corn): 1.5
melting point: 80 to 82 °C
